Laboratory results published in article PMC12974487, “Inhibition of FicD-mediated AMPylation and deAMPylation by isoprenoid diphosphates” (Proceedings of the National Academy of Sciences of the …, 2026).
Substitutions are numbered along the chain they refer to. “Also recorded” adds a separate entry of the source.

Tests used:
[1] = target: T1, FicD^E234G, L258D (Homo sapiens, UniProt Q9BVA6, E234G/L258D); assay: DSF thermal shift with FicD^E234G, L258D; format: binding
T1 construct: Wild-type FicD (residues 105-458) and all mutants were expressed as N-terminal 6xHis-Sumo fusions; 6xHis-Sumo (N, cleaved yes); made in house; host or cells: Rosetta(DE3) E. coli
T1 sequence (Q9BVA6 105-458 E234G/L258D): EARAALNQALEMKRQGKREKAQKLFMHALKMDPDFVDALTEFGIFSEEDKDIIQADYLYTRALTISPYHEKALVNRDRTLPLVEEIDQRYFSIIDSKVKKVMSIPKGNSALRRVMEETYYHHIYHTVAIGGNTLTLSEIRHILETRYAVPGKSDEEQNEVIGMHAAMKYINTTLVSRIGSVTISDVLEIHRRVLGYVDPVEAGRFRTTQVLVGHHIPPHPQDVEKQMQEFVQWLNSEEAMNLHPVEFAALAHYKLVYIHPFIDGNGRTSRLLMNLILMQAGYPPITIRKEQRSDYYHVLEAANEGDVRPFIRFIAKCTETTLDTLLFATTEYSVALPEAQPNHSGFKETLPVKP

[2] = target: T2, FicD^R374C (Homo sapiens, UniProt Q9BVA6, R374C); assay: AMPylation of Δ26hBiP^T229A by pathogenic variant FicD^R374C; format: biochemical; conditions: indicated concentrations of FPP
T2 construct: Wild-type FicD (residues 105-458) and all mutants were expressed as N-terminal 6xHis-Sumo fusions; 6xHis-Sumo (N, cleaved yes); made in house; host or cells: Rosetta(DE3) E. coli
T2 sequence (Q9BVA6 105-458 R374C): T1 sequence (Q9BVA6 105-458 E234G/L258D) with G130E, D154L, R270C
From the text: Fig. 5. Crystal structure of FPP inhibitor bound to FicD active site. […] FPP (cyan stick) and Mg^2+ (cyan sphere) in the pocket of FicD shown as APBS electrostatic surface with positive areas in blue, negative in red, and neutral in white (contour level: ±5 kBT/e) (Right). […] (C–E) AMPylation assays of Δ26hBiP^T229A in the presence of the indicated concentration of FPP using the pathogenic human variants (C) FicD^R371S, (D) FicD^R374H and (E) FicD^R374C. AMPylated BiP and Fic were quantified by immunodetection, and total BiP was quantified by CBB. […]
Isothermal Titration Calorimetry
Proteins were dialyzed against 25mM HEPES pH 7.4/100mM KCl/10% glycerol prior to titration. […]
MgCl2 was added to […]
proteins to a final concentration of 4mM. ITC experiments were performed in a Micro-Cal PEAQ-ITC (Malvern Panalytical, Worcestershire, UK) calorimeter with a stirred 206.2 μL reaction cell held at 20 °C. 250μM FPP was titrated into 25uM Δ104hFicL258D with 750rpm stirring. The first injection was 0.5 μL, followed by twenty 1.9 μL injections. […]
Thermogram and binding figures were plotted in
For AMPylation assays with FicD and BiP, Δ104FicDWT and Δ26hBiPT229A were combined at a ratio of 1:80 in buffer containing 25mM HEPES pH 7.4, 100mM KCl, 5mM MgCl2, 500μM ATP, 1mM DTT, and small molecule where indicated. Assays with Δ104FicDWT were incubated for 1 hour. […]

[3] = target: T3, FicD^R371S (Homo sapiens, UniProt Q9BVA6, R371S); assay: DSF with FicD^R371S variant; format: binding; conditions: addition of 5 mM MgCl2, any concentration tested
T3 construct: Wild-type FicD (residues 105-458) and all mutants were expressed as N-terminal 6xHis-Sumo fusions; 6xHis-Sumo (N, cleaved yes); made in house; host or cells: Rosetta(DE3) E. coli
T3 sequence (Q9BVA6 105-458 R371S): T1 sequence (Q9BVA6 105-458 E234G/L258D) with G130E, D154L, R267S

CC(C)=CCC/C(C)=C/CC/C(C)=C/COP(=O)(O)OP(=O)(O)O [FPP, farnesyl-pyrophosphate]
binding to FicD^E234G, L258D by DSF ([1]; absence of MgCl2): bound
binding to FicD^E234G, L258D by DSF ([1]; presence of 5 mM MgCl2): bound
FPP inhibition of FicD^R374C mediated AMPylation [2]: inhibition; also recorded: inhibited
binding to FicD^R371S by DSF [3]: did not confer FPP binding
